These results are taken from patent publication US7700577B2, “Carbohydrate based anti-bacterials” (Alchemia Limited, priority 2002, dated 2010).

Assay [1] relates to Staphylococcus aureus (ATCC43300) MRSA. Description: MIC testing, additional organisms: Staphylococcus aureus MRSA. Format: cell-based. An excerpt:
(§1) The broth microdilution format of the National Committee for Clinical Laboratory Standards (NCCLS) approved standard for susceptibility tests as outlined in M7-A4 “methods for dillution Antimicrobial susceptibility tests for bacteria that grow aerobically; approved standard—fifth edition”, January 2000 was utilized for minimum inhibitory concentration testing in Mueller-Hinton broth. The broth for Streptococcus pyogenes testing was supplemented with 2% laked horse blood. A positive result in initial testing was determined by complete inhibition of macroscopic bacterial growth at a concentration of 128 micrograms per mL after incubation for 16 to 24 hours at 37 degrees C. In the case of Micrococcus luteus, incubation was at 30 degrees C.
(§2) Bacterial Types Are: • SA24 S. aureus after 24 hours exposure • SA48 S. aureus after 48 hours exposure • EC24 E. coli after 24 hours exposure
(§3) The following compounds were tested against additional organisims with the following results. • 1. Micrococcus luteus (ATCC272) • 2. Staphylococcus aureus (ATCC29213) • 3. Staphylococcus aureus (ATCC43300) MRSA • 4. Enterococcus faecalis (ATCC29212) • 5. Enterococcus faecalis (ATCCS 1299) Vancomycin resistant • 6. Streptococcus pyrogenes (ATCC8668)

The test system of assay [2] is Streptococcus pyrogenes (ATCC8668). Description: MIC testing, additional organisms: Streptococcus pyrogenes. In kind it is cell-based. As to conditions: broth supplemented with 2% laked horse blood.
From the text: as §1, §2, §3

The next assay has as its system S. aureus. In words: MIC testing, broth microdilution (NCCLS), S. aureus. Format: cell-based, Staphylococcus aureus. As to conditions: for SA24 (MIC): S. aureus after 24 hours exposure; for SA48 (MIC): S. aureus after 48 hours exposure. An excerpt:
(§4) The broth microdilution format of the National Committee for Clinical Laboratory Standards (NCCLS) approved standard for susceptibility tests as outlined in M7-A4 “methods for dillution Antimicrobial susceptibility tests for bacteria that grow aerobically; approved standard—fifth edition”, January 2000 was utilized for minimum inhibitory concentration testing in Mueller-Hinton broth. The broth for Streptococcus pyogenes testing was supplemented with 2% laked horse blood. A positive result in initial testing was determined by complete inhibition of macroscopic bacterial growth at a concentration of 128 micrograms per mL after incubation for 16 to 24 hours at 37 degrees C. In the case of Micrococcus luteus, incubation was at 30 degrees C. […] Bacterial Types Are: • SA24 S. aureus after 24 hours exposure • SA48 S. aureus after 48 hours exposure • EC24 E. coli after 24 hours exposure

For assay [3], the system named is Micrococcus luteus (ATCC272). Description: MIC testing, additional organisms: Micrococcus luteus. Format: cell-based. As to conditions: incubation at 30 degrees C.
From the text: as §1, §2, §3

The subject of assay [4] is Enterococcus faecalis (ATCCS 1299) Vancomycin resistant. Description: MIC testing, additional organisms: Enterococcus faecalis vancomycin resistant. Format: cell-based.
From the text: as §1, §2, §3

The test system of assay [5] is Staphylococcus aureus (ATCC29213). In words: MIC testing, additional organisms: Staphylococcus aureus ATCC29213. Format: cell-based.
From the text: as §1, §2, §3

Assay [6] concerns Enterococcus faecalis (ATCC29212). In words: MIC testing, additional organisms: Enterococcus faecalis ATCC29212. In kind it is cell-based.
From the text: as §1, §2, §3

Another assay deals with E. coli. Description: MIC testing, broth microdilution (NCCLS), E. coli. Format: cell-based. As to conditions: E. coli after 24 hours exposure.
From the text: as §4
For orientation: Broth dilution looks for growth in wells or tubes with falling amounts of substance.

As for `CCCCCCCC(=O)Nc1ccc(C(=O)NC2C(CO)OCC(NC(=O)Nc3cccc(C(F)(F)F)c3)C2OC2OC(CO)C(O)C(O)C2NC(=O)Nc2cccc(C(F)(F)F)c2)cc1` (stereo not shown) [compound 65], the “MIC, organism 3” value in assay [1] is on record as “− (− indicates an MIC of greater then 128 micrograms per mL)”. Also, the “MIC, organism 6” value in assay [2] is on record as “+ (+ indicates an MIC value of less than 128 micrograms per mL)”. In the assay with S. aureus, the “SA24 (MIC)” value is “+ (+ indicates an MIC value of less than 128 micrograms per mL)” and the “SA48 (MIC)” value is listed as “+ (+ indicates an MIC value of less than 128 micrograms per mL)”. Also, in assay [3], the “MIC, organism 1” value is listed as “+ (+ indicates an MIC value of less than 128 micrograms per mL)”. In addition, in assay [4], the “MIC, organism 5” value is “− (− indicates an MIC of greater then 128 micrograms per mL)”. Also, in assay [5], the “MIC, organism 2” value is “− (− indicates an MIC of greater then 128 micrograms per mL)”. In addition, the “MIC, organism 4” value in assay [6] is recorded as “+ (+ indicates an MIC value of less than 128 micrograms per mL)”.
On to `O=C(Nc1cccc(C(F)(F)F)c1)NC1COC(CO)C(NC(=O)c2ccc(-c3ccccc3)cc2)C1OC1OC(CO)C(O)C(O)C1NC(=O)Nc1cccc(C(F)(F)F)c1` (stereo not shown) [compound 74], for which the “MIC, organism 3” value in assay [1] is listed as “+ (+ indicates an MIC value of less than 128 micrograms per mL)”. Further, the “MIC, organism 6” value in assay [2] is recorded as “+ (+ indicates an MIC value of less than 128 micrograms per mL)”. The “SA24 (MIC)” value in the assay on S. aureus is given as “+ (+ indicates an MIC value of less than 128 micrograms per mL)”. The “MIC, organism 1” value in assay [3] was “+ (+ indicates an MIC value of less than 128 micrograms per mL)”. The “MIC, organism 5” value in assay [4] was “+ (+ indicates an MIC value of less than 128 micrograms per mL)”. In addition, the “MIC, organism 2” value in assay [5] is reported as “+ (+ indicates an MIC value of less than 128 micrograms per mL)”. Further, the “MIC, organism 4” value in assay [6] is on record as “+ (+ indicates an MIC value of less than 128 micrograms per mL)”.
Take `CCCCCCCCCCS(=O)(=O)NC1C(CO)OCC(NC(=O)Nc2cccc(C(F)(F)F)c2)C1OC1OC(CO)C(O)C(O)C1NC(=O)Nc1cccc(C(F)(F)F)c1` (stereo not shown) [compound 69]: in assay [1], the “MIC, organism 3” value was “+ (+ indicates an MIC value of less than 128 micrograms per mL)”. In addition, the “MIC, organism 6” value in assay [2] is given as “+ (+ indicates an MIC value of less than 128 micrograms per mL)”. In the assay on S. aureus, the “SA24 (MIC)” value is recorded as “+ (+ indicates an MIC value of less than 128 micrograms per mL)”. In assay [3], the “MIC, organism 1” value is reported as “+ (+ indicates an MIC value of less than 128 micrograms per mL)”. Besides, the “MIC, organism 5” value in assay [4] is on record as “− (− indicates an MIC of greater then 128 micrograms per mL)”. In addition, the “MIC, organism 2” value in assay [5] is on record as “+ (+ indicates an MIC value of less than 128 micrograms per mL)”. The “MIC, organism 4” value in assay [6] was “+ (+ indicates an MIC value of less than 128 micrograms per mL)”.
As to `CCCCCCCCCCCCC(=O)NC1C(CO)OCC(NC(=O)Nc2cccc(C(F)(F)F)c2)C1OC1OC(CO)C(O)C(O)C1NC(=O)Nc1cccc(C(F)(F)F)c1` (stereo not shown) [compound 76], the “MIC, organism 3” value in assay [1] is reported as “+ (+ indicates an MIC value of less than 128 micrograms per mL)”. In addition, the “MIC, organism 6” value in assay [2] is given as “+ (+ indicates an MIC value of less than 128 micrograms per mL)”. The “SA24 (MIC)” value with S. aureus was “+ (+ indicates an MIC value of less than 128 micrograms per mL)”. In addition, the “MIC, organism 1” value in assay [3] is “+ (+ indicates an MIC value of less than 128 micrograms per mL)”. Also, the “MIC, organism 5” value in assay [4] was “+ (+ indicates an MIC value of less than 128 micrograms per mL)”. Further, the “MIC, organism 2” value in assay [5] is given as “+ (+ indicates an MIC value of less than 128 micrograms per mL)”. Moreover, the “MIC, organism 4” value in assay [6] is “+ (+ indicates an MIC value of less than 128 micrograms per mL)”.
For `Cc1ccc(S(=O)(=O)NC2[C@H](O[C@@H]3C(NC(=O)Nc4cccc(C(F)(F)F)c4)COC(CO)[C@@H]3NC(=O)c3ccc(-c4ccccc4)cc3)OC(CO)[C@@H](O)[C@@H]2O)cc1` (stereo partly shown) [compound 49], the “SA48 (MIC)” value with S. aureus is given as “+ (+ indicates an MIC value of less than 128 micrograms per mL)”. Moreover, in the assay with E. coli, the “EC24 (MIC)” value is recorded as “− (− indicates an MIC of greater then 128 micrograms per mL)”.
For the compound `O=C(Nc1cccc(C(F)(F)F)c1)NC1COC(CO)[C@H](NC(=O)c2ccc(-c3ccccc3)cc2)[C@@H]1O[C@@H]1OC(CO)[C@@H](O)[C@H](O)C1NS(=O)(=O)c1cccc(C(F)(F)F)c1` (stereo partly shown) [compound 48], in the assay with S. aureus, the “SA24 (MIC)” value is “+ (+ indicates an MIC value of less than 128 micrograms per mL)” and the “SA48 (MIC)” value is reported as “+ (+ indicates an MIC value of less than 128 micrograms per mL)”. Moreover, in the assay on E. coli, the “EC24 (MIC)” value is given as “− (− indicates an MIC of greater then 128 micrograms per mL)”.
Regarding `CCCCCC(C)CCC(=O)N[C@H]1C(CO)OCC(NC(=N)Nc2cccc(C(F)(F)F)c2)[C@H]1O[C@@H]1OC(CO)[C@@H](O)[C@H](O)C1NC(=N)Nc1cccc(C(F)(F)F)c1` (stereo partly shown) [compound 19], in the assay on S. aureus, the “SA24 (MIC)” value is “+ (+ indicates an MIC value of less than 128 micrograms per mL)” and the “SA48 (MIC)” value is listed as “+ (+ indicates an MIC value of less than 128 micrograms per mL)”. Further, in the assay with E. coli, the “EC24 (MIC)” value is reported as “+ (+ indicates an MIC value of less than 128 micrograms per mL)”.
With `Cc1ccc(S(=O)(=O)NC2C(OC3C(NC(=N)Nc4cccc(C(F)(F)F)c4)COC(CO)C3NC(=O)c3ccc(-c4ccccc4)cc3)OC(CO)C(O)C2O)cc1` (stereo not shown) [compound 12], in the assay on S. aureus, the “SA24 (MIC)” value was “+ (+ indicates an MIC value of less than 128 micrograms per mL)” and the “SA48 (MIC)” value is “+ (+ indicates an MIC value of less than 128 micrograms per mL)”. Further, the “EC24 (MIC)” value in the assay with E. coli is listed as “+ (+ indicates an MIC value of less than 128 micrograms per mL)”.
On to `N=C(Nc1cccc(C(F)(F)F)c1)NC1[C@H](O[C@@H]2C(NC(=N)Nc3cccc(C(F)(F)F)c3)COC(CO)[C@@H]2NC(=O)C(N)Cc2ccc(-c3ccccc3)cc2)OC(CO)[C@@H](O)[C@@H]1O` (stereo partly shown) [compound 26], for which, in the assay with S. aureus, the “SA24 (MIC)” value is “+ (+ indicates an MIC value of less than 128 micrograms per mL)” and the “SA48 (MIC)” value is “+ (+ indicates an MIC value of less than 128 micrograms per mL)”. Moreover, the “EC24 (MIC)” value with E. coli was “+ (+ indicates an MIC value of less than 128 micrograms per mL)”.
On to `CC(C)=CCCC(C)=CCN[C@H]1C(CO)OCC(NC(=N)Nc2cccc(C(F)(F)F)c2)[C@H]1O[C@@H]1OC(CO)[C@@H](O)[C@H](O)C1NC(=N)Nc1cccc(C(F)(F)F)c1` (stereo partly shown) [compound 23], for which, in the assay with S. aureus, the “SA24 (MIC)” value was “+ (+ indicates an MIC value of less than 128 micrograms per mL)” and the “SA48 (MIC)” value is given as “+ (+ indicates an MIC value of less than 128 micrograms per mL)”. Besides, in the assay with E. coli, the “EC24 (MIC)” value was “+ (+ indicates an MIC value of less than 128 micrograms per mL)”.
For `O=C(Nc1cccc(C(F)(F)F)c1)NC1C(OC2C(NC(=O)OCc3ccccc3)COC(CO)C2NC(=O)c2ccc(-c3ccccc3)cc2)OC(CO)C(O)C1O` (stereo not shown) [compound 8], in the assay with S. aureus, the “SA24 (MIC)” value is on record as “+ (+ indicates an MIC value of less than 128 micrograms per mL)” and the “SA48 (MIC)” value is “+ (+ indicates an MIC value of less than 128 micrograms per mL)”. For the same compound, the “EC24 (MIC)” value in the assay on E. coli is listed as “− (− indicates an MIC of greater then 128 micrograms per mL)”.
